# Assays:
# [1] = system: Candida albicans, ATCC 10231; test: Microbiology challenge test, log drop; format: cell-based
# Protocol: (§1) The following is the procedure by which various antimicrobial agents and solutions are tested for their ability to reduce microbial loads over short periods of time, typically 24 hours and less. The procedure is a basic microbiology challenge test, which involves the inoculation of test product aliquots with a known number of viable cells of several test organisms, and assay for the survivors at various time intervals. The results are used to calculate log drops at soak times and construct kill-curves (graphs of survivors versus time) if desired.
# (§2) Candida albicans, ATCC 10231, is one of five organisms specified per FDA and ISO/CLI tests for the testing of contact lens disinfectants (FDA Premarket Notification (510k) Guidance Document for Contact Lens Care Products, Appendix B, Apr. 1, 1997 and ISO/FDIS 14729: Ophthalmic optics-Contact lens care products-Microbiological requirements and test methods for products and regimens for hygienic management of contact lenses, January 2001). Contact lens disinfectants are also known as contact lens multi-purpose solutions when they are used for rinsing, cleaning, disinfection, storage and rewetting contact lenses. The five FDA/ISO specified test organisms are listed below: • Serratia marcescens, ATCC 13880 • Staphylococcus aureus, ATCC 6538 • Pseudomonas aeruginosa, ATCC 9027 • Candida albicans, ATCC 10231 • Fusarium solani, ATCC 36031
# (§3) The specific test procedure for testing antimicrobial activity against the five FDA/ISO specified test organisms is as follows (C. albicans is provided as a specific example): Test samples are sterile-filtered through a 0.22 micron sterile filter into sterile plastic high density polyethylene bottles or plastic flasks. A 10-mL aliquot of test sample is aseptically transferred into a sterile polystyrene plastic test tube. Sterile saline (0.90 w/v % NaCl) with 0.05 w/v % Polysorbate 80 (SS+TWEEN) is transferred into a separate control tube. All samples and control are stored at 20-25° C. throughout the duration of the test.
# (§4) Test cultures of Candida albicans, ATCC 10231 are prepared in the conventional manner. Candida albicans cultures are grown on agar slants from primary frozen, lyophilized or “Culti-loop®” cultures. Three mL of sterile 0.9% saline is used to gently dislodge culture growth from the agar surface. The resulting harvest is transferred to an appropriate screw cap test tube containing glass beads and vortexed for approximately one minute. The vortexed harvest is diluted as needed with sterile 0.9% saline to prepare the culture inoculum with a concentration of 1×10e8 CFU/mL. Fifty microliters of culture inoculum is added to 10.0 mL of each test sample and control, so that the final inoculum level is in the range of 1×10e5 to 1×10e6 CFU(colony forming units) per mL of Candida albicans, ATCC 10231. Each sample and control tube is vortexed briefly to disperse the inoculum. Contact time intervals for testing activity against Candida are typically 4 or 6 hours, to conform to the intended product label instructions for contact lens soak time.
# (§5) Aerobic Plate Count Methods are performed in order to quantitate test samples for their levels of survivors. At appropriate assay times, 0.5 mL well-vortexed aliquots are removed from sample tubes and added to glass test tubes containing 4.5 mL Letheen Neutralizing Broth media (Berton, Dickinson and Company, Sparks, Md.). After a previously determined, validated neutralizing time period, these samples are diluted 10-fold through serial dilutions using glass test tubes containing 4.5 mL Letheen Neutralizing Broth media. Aliquots of 0.1 mL are removed from each dilution tube and spread-plate applied to agar plates containing Sabouraud Dextrose Agar (SAB)(Berton, Dickinson and Company, Sparks, Md.). 10^1 to 10^4 CFU/mL survivor levels are quantitated. […]
# [2] = system: Fusarium solani, ATCC 36031; test: Microbiology challenge test, log drop; format: cell-based
# Protocol: as §1, §2, §3, §4, §5
# [3] = system: Pseudomonas aeruginosa, ATCC 9027; test: Microbiology challenge test, log drop; format: cell-based
# Protocol: as §1, §2, §3, §4, §5
# [4] = system: Serratia marcescens, ATCC 13880; test: Microbiology challenge test, log drop; format: cell-based
# Protocol: as §1, §2, §3, §4, §5
# [5] = system: Staphylococcus aureus, ATCC 6538; test: Microbiology challenge test, log drop; format: cell-based
# Protocol: as §1, §2, §3, §4, §5
# [6] = Contact lens uptake: content left in solution after shaking with lenses; format: physicochemical; details: Myristylamine with TPGS 20 fold; for remaining content left in solution, Acuvue / remaining content left in solution, Purevision: 15 ml solution, closed system shaken 6 days at room temperature; for remaining content left in solution, Acuvue: 2 Acuvue lenses; for remaining content left in solution, Purevision: 2 Purevision lenses; for remaining content left in solution, Without Lens: 15 ml system without lenses, shaken 6 days at room temperature
# Protocol: The results in Table 9A show the remaining quaternary ammonium and tertiary amine content left in solution after a 15 ml-solution-2 lenses closed system has been shaken for 6 days at room temperature. […] The control which was run for this experiment, which includes the remaining ingredients in the solutions referenced in Table 9A are listed in Table 9B. As one of ordinary skill in the art would realize, the less quaternary ammonium or tertiary amine content remaining in solution after the shaking period, the higher the absorption by the lenses.
# [7] = system: five FDA/ISO specified test organisms; test: Antimicrobial activity against the five-microbial panel, FDA/ISO disinfection criteria; format: cell-based; details: result in words
# Protocol: The following is the procedure by which various antimicrobial agents and solutions are tested for their ability to reduce microbial loads over short periods of time, typically 24 hours and less. The procedure is a basic microbiology challenge test, which involves the inoculation of test product aliquots with a known number of viable cells of several test organisms, and assay for the survivors at various time intervals. The results are used to calculate log drops at soak times and construct kill-curves (graphs of survivors versus time) if desired. Candida albicans, ATCC 10231, is one of five organisms specified per FDA and ISO/CLI tests for the testing of contact lens disinfectants (FDA Premarket Notification (510k) Guidance Document for Contact Lens Care Products, Appendix B, Apr. 1, 1997 and ISO/FDIS 14729: Ophthalmic optics-Contact lens care products-Microbiological requirements and test methods for products and regimens for hygienic management of contact lenses, January 2001). Contact lens disinfectants are also known as contact lens multi-purpose solutions when they are used for rinsing, cleaning, disinfection, storage and rewetting contact lenses. The five FDA/ISO specified test organisms are listed below: • Serratia marcescens, ATCC 13880 • Staphylococcus aureus, ATCC 6538 • Pseudomonas aeruginosa, ATCC 9027 • Candida albicans, ATCC 10231 • Fusarium solani, ATCC 36031 Candida albicans is often the most resistant of the five organisms to commonly used cationic antimicrobial agents in contact lens multi-purpose solutions. Thus, achievement of adequate antimicrobial activity against Candida is often the most difficult task to pass a particular disinfection efficacy standard. FDA and ISO guidelines specify two disinfection efficacy standards, indicated in the table below: Stand Alone Disinfectant (Primary) Criteria: [table] The specific test procedure for testing antimicrobial activity against the five FDA/ISO specified test organisms is as follows (C. albicans is provided as a specific example): Test samples are sterile-filtered through a 0.22 micron sterile filter into sterile plastic high density polyethylene bottles or plastic flasks. A 10-mL aliquot of test sample is aseptically transferred into a sterile polystyrene plastic test tube. Sterile saline (0.90 w/v % NaCl) with 0.05 w/v % Polysorbate 80 (SS+TWEEN) is transferred into a separate control tube. All samples and control are stored at 20-25° C. throughout the duration of the test.
# [8] = Table 8B: Cetylamine 0.0001 % w/w with PHMB 0.00002, Pluronic F87 0.05, pH 7.7
# [9] = Table 8B: Cetylamine 0.0001 % w/w, PHMB 0.00, Pluronic F87 0.05, pH 7.7
# [10] = Table 8B: Cetylamine 0.000125 % w/w, PHMB 0.00, Pluronic F87 0.05, pH 7.7
# [11] = Table 8B: Cetylamine 0.0003 % w/w, PHMB 0.00, Pluronic F87 0.05, pH 7.7
# [12] = Cetylpyridinium Chloride 0.001 w/v %, TPGS 0, Tetronic 1307 0.05
# [13] = Cetylpyridinium Chloride 0.001 w/v %, TPGS 0.025, Tetronic 1307 0.05
# [14] = Table 2B: Dodecylamine 0.0003 % w/w, Tetronic 1307 0.05, pH 7.8
# [15] = Table 2B: Dodecylamine 0.0005 % w/w, Tetronic 1307 0.05, pH 7.8
smiles,measurement,setting,value
CCCCCCCCCCCCCCCCN [Cetylamine],Log Drop,[1]; [8],1.51
same,Log Drop,[1]; [9],2.89
same,Log Drop,[1]; [10],1.97
same,Log Drop,[1]; [11],2.89
same,Log Drop,[2]; [8],1.14
same,Log Drop,[2]; [9],1.3
same,Log Drop,[2]; [10],2.76
same,Log Drop,[2]; [11],1.48
same,Log Drop,[3]; [8],4.43
same,Log Drop,[3]; [9],4.49
same,Log Drop,[3]; [10],3.95
same,Log Drop,[3]; [11],4.49
same,Log Drop,[4]; [8],4.18
same,Log Drop,[4]; [9],2.35
same,Log Drop,[4]; [10],3.76
same,Log Drop,[4]; [11],3.61
same,Log Drop,[5]; [8],4.81
same,Log Drop,[5]; [9],4.18
same,Log Drop,[5]; [10],4.81
same,Log Drop,[5]; [11],4.79
"CCCCCCCCCCCCCCCC[n+]1ccccc1 [Cetylpyridinium Chloride, reference compound]",Log Drop,[1]; [12],4.41
same,Log Drop,[1]; [13],0.12
same,Log Drop,[2]; [12],>4.08
same,Log Drop,[2]; [13],1.06
same,"remaining content left in solution, Acuvue",[6],3.3 ppm
same,"remaining content left in solution, Purevision",[6],1.3 ppm
same,"remaining content left in solution, Without Lens",[6],42.7 ppm
"CCCCCCCCCCCCN [Dodecylamine, reference compound]",Log Drop,[1]; [14],0.91
same,Log Drop,[1]; [15],1.77
same,Log Drop,[2]; [14],0.09
same,Log Drop,[2]; [15],0.16
same,Log Drop,[3]; [14],1.4
same,Log Drop,[3]; [15],1.36
same,Log Drop,[4]; [14],0.46
same,Log Drop,[4]; [15],0.46
same,Log Drop,[5]; [14],0.34
same,Log Drop,[5]; [15],0.12
same,antimicrobial activity,[7],very weak antimicrobial activity
same,antimicrobial activity,[7]; listed as dodecylamine,not qualified as a disinfectant for contact lens care
same,"remaining content left in solution, Acuvue",[6],35.0 ppm
same,"remaining content left in solution, Purevision",[6],14.1 ppm
same,"remaining content left in solution, Without Lens",[6],44.4 ppm
CCCCCCCCCCCCCC(=O)NCCCN(C)C [Myristylamidopropyl-dimethylamine],"remaining content left in solution, Acuvue",[6],18.2 ppm
same,"remaining content left in solution, Purevision",[6],4.7 ppm
same,"remaining content left in solution, Without Lens",[6],43.5 ppm
